{
  "source": "patent US8067042B1",
  "about": "(Mutual Pharmaceutical Company, Inc., priority 2007, dated 2011)",
  "key": {"[1]": {"test_system": "CYP2A6", "conditions": "50 μM megestrol acetate, microsomes, tranylcypromine"}, "[2]": {"biological_target": "T1, Human CYP2A6 + P450 Reductase + Cytochrome b5 SUPERSOMES (Homo sapiens, UniProt P11509)", "T1 sequence (P11509 1-494)": "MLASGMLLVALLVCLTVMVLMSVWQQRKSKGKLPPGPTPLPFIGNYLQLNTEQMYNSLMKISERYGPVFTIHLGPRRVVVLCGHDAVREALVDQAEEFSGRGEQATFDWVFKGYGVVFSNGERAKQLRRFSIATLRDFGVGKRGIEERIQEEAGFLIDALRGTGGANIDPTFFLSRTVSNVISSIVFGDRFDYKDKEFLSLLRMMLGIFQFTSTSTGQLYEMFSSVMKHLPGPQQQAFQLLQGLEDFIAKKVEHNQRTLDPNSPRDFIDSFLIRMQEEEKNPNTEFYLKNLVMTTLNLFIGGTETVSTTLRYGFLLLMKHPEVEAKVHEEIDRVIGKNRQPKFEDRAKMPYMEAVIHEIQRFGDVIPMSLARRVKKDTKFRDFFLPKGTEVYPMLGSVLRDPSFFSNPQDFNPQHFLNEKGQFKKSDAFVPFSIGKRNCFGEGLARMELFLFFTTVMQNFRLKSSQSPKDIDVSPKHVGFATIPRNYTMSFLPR", "description": "In this study, individual CYP isoforms expressed from human cDNA and P450 reductase cDNA were used (BD SUPERSOMES™ Enzymes, BD Biosciences Discovery Labware, Woburn, Mass.). SUPERSOMES™ are microsomes from baculovirus-infected insect cells containing singly expressed recombinant human CYP enzymes.\nAfter a 5-minute preincubation, an appropriate amount of the appropriate buffer was added to the reaction mixtures to make the final volume of 0.5 mL. The incubations were continued for 60 minutes.\nAll incubation reactions were terminated by adding 0.5 mL methanol, and the samples were transferred to cryovials and stored at −70±10° C. until analysis."}, "[3]": {"biological_target": "CYP2C9 (Homo sapiens, UniProt P11712)", "sequence (P11712 whole entry)": "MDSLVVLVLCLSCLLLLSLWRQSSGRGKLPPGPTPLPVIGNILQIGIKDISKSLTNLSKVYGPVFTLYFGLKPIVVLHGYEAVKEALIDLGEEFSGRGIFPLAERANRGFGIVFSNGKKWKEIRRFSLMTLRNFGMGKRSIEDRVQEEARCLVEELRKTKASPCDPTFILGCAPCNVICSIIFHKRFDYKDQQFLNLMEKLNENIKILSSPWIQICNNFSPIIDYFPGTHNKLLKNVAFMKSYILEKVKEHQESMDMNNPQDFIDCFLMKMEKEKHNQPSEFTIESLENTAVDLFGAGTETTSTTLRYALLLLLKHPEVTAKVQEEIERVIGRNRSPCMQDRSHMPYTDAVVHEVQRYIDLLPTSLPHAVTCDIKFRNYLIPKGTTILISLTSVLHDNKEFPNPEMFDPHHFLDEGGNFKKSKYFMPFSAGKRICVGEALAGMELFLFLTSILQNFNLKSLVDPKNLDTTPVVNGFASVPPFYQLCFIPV", "type": "in vitro ADME", "conditions": "50 μM megestrol acetate, microsomes"}, "[4]": {"biological_target": "T2, CYP1A2 (Homo sapiens, UniProt P05177)", "T2 sequence (P05177 1-516)": "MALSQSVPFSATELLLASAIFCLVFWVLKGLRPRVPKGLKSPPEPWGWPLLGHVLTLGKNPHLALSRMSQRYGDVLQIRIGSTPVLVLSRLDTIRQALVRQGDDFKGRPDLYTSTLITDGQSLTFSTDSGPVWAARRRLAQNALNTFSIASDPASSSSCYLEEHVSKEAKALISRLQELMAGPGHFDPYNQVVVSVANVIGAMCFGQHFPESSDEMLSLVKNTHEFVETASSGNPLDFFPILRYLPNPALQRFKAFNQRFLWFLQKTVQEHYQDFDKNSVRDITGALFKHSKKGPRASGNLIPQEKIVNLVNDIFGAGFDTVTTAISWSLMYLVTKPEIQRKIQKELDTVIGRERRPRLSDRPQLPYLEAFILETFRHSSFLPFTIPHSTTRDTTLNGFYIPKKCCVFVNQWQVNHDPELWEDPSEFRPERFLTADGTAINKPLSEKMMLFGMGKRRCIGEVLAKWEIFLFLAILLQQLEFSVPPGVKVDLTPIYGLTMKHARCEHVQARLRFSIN", "procedure": "The stock solutions were added to incubation mixtures to obtain the final concentrations of 5 and 50 μM, each containing 1% acetonitrile.\nMicrosomes were prepared by differential centrifugation of liver homogenates pooled from at least ten human donors.\nAfter a 5 minute preincubation, nicotinamide adenine dinucleotide phosphate (NADPH) regenerating system (NRS; 1.7 mg/mL β-NADP, 7.8 mg/mL glucose-6-phosphate, and 6 units/mL glucose-6-phosphate dehydrogenase in 2% sodium bicarbonate solution) was added to initiate the reaction. The final incubation volume was 0.5 mL. Incubations were continued for 60 minutes.\nAll incubations were conducted at 37±1° C. in a shaking water bath. All incubations were carried out in triplicates.\nAfter a 5-minute preincubation, 2% sodium bicarbonate solution was added to the incubation mixtures. The final incubation volume was 0.5 mL. Incubations were continued for 60 minutes.\nIncubation reactions, including the matrix controls and metabolic negative controls, were terminated by adding 0.5 mL methanol.\nThe samples were analyzed on a Supelcosil LC-18 column (3μ, 120 Å, 3.0×100 mm)."}, "[5]": {"test_system": "CYP2C8"}, "[6]": {"biological_target": "T3, CYP2C8 (Homo sapiens, UniProt P10632)", "T3 sequence (P10632 1-490)": "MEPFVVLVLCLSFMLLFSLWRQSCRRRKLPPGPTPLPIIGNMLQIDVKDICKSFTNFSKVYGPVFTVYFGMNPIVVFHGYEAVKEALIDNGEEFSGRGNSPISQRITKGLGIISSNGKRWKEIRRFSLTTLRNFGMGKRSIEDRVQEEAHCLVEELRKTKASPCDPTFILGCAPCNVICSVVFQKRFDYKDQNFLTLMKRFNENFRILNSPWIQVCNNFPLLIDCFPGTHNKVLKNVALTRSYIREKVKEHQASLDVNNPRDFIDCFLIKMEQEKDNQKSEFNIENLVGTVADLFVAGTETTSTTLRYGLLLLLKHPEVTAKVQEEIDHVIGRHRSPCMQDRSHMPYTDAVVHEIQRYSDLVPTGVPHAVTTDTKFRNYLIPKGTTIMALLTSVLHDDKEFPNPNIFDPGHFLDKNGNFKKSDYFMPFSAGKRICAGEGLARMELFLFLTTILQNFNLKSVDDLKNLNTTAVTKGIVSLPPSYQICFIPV", "type": "in vitro ADME", "design": "purchased BD Biosciences Discovery Labware, Woburn, Mass; host or cells: baculovirus-infected insect cells", "conditions": "50 μM megestrol acetate, 20 pmol CYP2C8"}, "[7]": {"conditions": "human, microsomes, 60 min, pH 7.4"}},
  "note": "Several values for one entry are separate records, joined by “and”; a condition that tells them apart may be missing. Equal values may be shown once. Read-outs that look alike come from different tables or passages of the source.",
  "data": [
    {"smiles": "CC(=O)O[C@]1(C(C)=O)CC[C@H]2[C@@H]3C=C(C)C4=CC(=O)CC[C@]4(C)[C@H]3CC[C@@]21C", "note": "[Megestrol Acetate, 17 α-acetyloxy-6-methylpregna-4,6-diene-3,20-dione]", "values": [
      {"measurement": "difference in metabolism in the presence or absence of the inhibitor (LC/MS)", "setting": "[1]", "result": "a slight difference in metabolism"},
      {"measurement": "Individual Raw Data Observed", "setting": "[2]; 5 μM, 5 pmol enzyme", "result": "2.313 µM and 2.35 µM and 2.527 µM"},
      {"measurement": "Percent of Parent Disappearance Individual", "setting": "[2]; 5 μM, 5 pmol enzyme", "result": "3.96% and 2.43% and −4.94%"},
      {"measurement": "Percent of Parent Disappearance Mean ± SD", "setting": "[2]; 5 μM, 5 pmol enzyme", "result": "0.486 ± 4.76", "unit": "%"},
      {"measurement": "Percent of Parent Disappearance Mean ± SD", "setting": "[2]; 5 μM, 5 pmol enzyme, listed as megestrol acetate", "result": "0.486±4.76", "unit": "%"},
      {"measurement": "Individual Raw Data Observed", "setting": "[2]; 5 μM, 20 pmol enzyme", "result": "2.456 µM and 2.487 µM and 2.684 µM"},
      {"measurement": "Percent of Parent Disappearance Individual", "setting": "[2]; 5 μM, 20 pmol enzyme", "result": "1.36% and 0.129% and −7.81%"},
      {"measurement": "Percent of Parent Disappearance Mean ± SD", "setting": "[2]; 5 μM, 20 pmol enzyme", "result": "−2.11 ± 4.98", "unit": "%"},
      {"measurement": "Percent of Parent Disappearance Mean ± SD", "setting": "[2]; 5 μM, 20 pmol enzyme, listed as megestrol acetate", "result": "2.11±4.98", "unit": "%"},
      {"measurement": "Individual Raw Data Observed", "setting": "[2]; 50 μM, 5 pmol enzyme", "result": "24.75 µM and 23.3 µM and 23.45 µM"},
      {"measurement": "Percent of Parent Disappearance Individual", "setting": "[2]; 50 μM, 5 pmol enzyme", "result": "−5.02% and 1.11% and 0.484%"},
      {"measurement": "Percent of Parent Disappearance Mean ± SD", "setting": "[2]; 50 μM, 5 pmol enzyme", "result": "−1.14 ± 3.38", "unit": "%"},
      {"measurement": "Percent of Parent Disappearance Mean ± SD", "setting": "[2]; 50 μM, 5 pmol enzyme, listed as megestrol acetate", "result": "1.14±3.38", "unit": "%"},
      {"measurement": "Individual Raw Data Observed", "setting": "[2]; 50 μM, 20 pmol enzyme", "result": "21.74 µM and 22.68 µM and 23.15 µM"},
      {"measurement": "Percent of Parent Disappearance Individual", "setting": "[2]; 50 μM, 20 pmol enzyme", "result": "4.54% and 0.420% and −1.66%"},
      {"measurement": "Percent of Parent Disappearance Mean ± SD", "setting": "[2]; 50 μM, 20 pmol enzyme", "result": "1.10 ± 3.16", "unit": "%"},
      {"measurement": "Percent of Parent Disappearance Mean ± SD", "setting": "[2]; 50 μM, 20 pmol enzyme, listed as megestrol acetate", "result": "1.10±3.16", "unit": "%"},
      {"measurement": "difference in metabolism in the presence or absence of the inhibitor (LC/MS)", "setting": "[3]", "result": "no significant difference in metabolism"},
      {"measurement": "percent metabolized in presence vs absence of inhibitor (unpaired two-tailed t-test)", "setting": "[4]", "result": "does not differ from the percentage of megestrol acetate metabolized in the absence of the inhibitor"},
      {"measurement": "metabolized in pooled human liver microsomes", "setting": "[4]; [7]", "result": "> 20", "unit": "%"},
      {"measurement": "percent metabolized in presence vs absence of inhibitor (unpaired two-tailed t-test)", "setting": "[5]", "result": "less than that of the percentage of megestrol acetate metabolized in the absence of the inhibitor"},
      {"measurement": "Percent of Parent Disappearance Individual", "setting": "[5]; 50 μM (with 100 μM Quercetin)", "result": 7.51, "unit": "%"},
      {"measurement": "metabolized in pooled human liver microsomes", "setting": "[5]; [7]", "result": "> 20", "unit": "%"},
      {"measurement": "megestrol acetate converted to its metabolites", "setting": "[6]", "result": 0.72, "unit": "%"}
    ]}
  ]
}
